Source: patent US8575357B2, “Substituted (thiazolyl-carbonyl)imidazolidinones and use thereof” (AiCuris GmbH & Co. KG, priority 2009, dated 2013)
Read-outs that look alike come from different tables or passages of the source.

Key:
HIV-1LAI = assay: H9 assay with wild-type HIV-1 (HIV-1LAI supernatant infection, AlamarBlue); assay type: cell-based; details: Human immunodeficiency virus 1, 120 h, H9 cells, 10% FCS, 5 days
Protocol: For the mixture for a 96-well MTP, 3 million PBLs are pelleted, suspended in 1 ml of RPMI 1640 medium/10% FCS and incubated together with a suitable amount of HIV-1LAI (NIH AIDS Research & Reference Reagent Program, Germantown, USA) at 37° C. for 2 hours (pellet infection). Unadsorbed viruses are subsequently washed out with PBS, and the infected cells are pelleted again and suspended in 18 ml of RPMI 1640 medium/10% FCS/interleukin-2 (40 U/ml). 180 μl thereof are pipetted into each well of a white 96-well MTP with 20 μl of test substance in suitable dilution. Alternatively, after preparation of the substance dilutions in the MTP, the HIV is pipetted in together with the cells and is not washed out again (supernatant infection). In order to avoid edge effects, the wells at the edge of the MTP are not used for substance dilutions. The second vertical row of the MTP contains only infected cells (virus control) and the eleventh vertical row only uninfected cells (cell control), in each case in RPMI 1640 medium/10% FCS/interleukin-2 (40 U/ml). The other wells of the MTP contain the compounds of the invention in various concentrations starting from the third vertical row, from which the test substances are diluted in 3-fold steps up to the tenth vertical row 3^7-fold. The test substances are dissolved in DMSO, whereby the final DMSO concentration in the test mixture is 1%. The test mixtures are incubated at 37° C./5% CO2. After 5 and 7 days, 50 μl of cell-free supernatant are removed from each well to determine the amount of p24 present by means of a p24 ELISA (HIV-1 p24^CA Antigen Capture Assay Kit, NCI-Frederick Cancer Research and Development Center, Frederick, USA). From the resulting values of the photometric evaluation (450/620 nm) the EC50 values of the test substances are determined as the concentration at which the amount of p24 is 50% of the untreated infected cells.
Alternatively, H9 cells (ATCC, Wesel, Germany) are employed instead of PBLs for testing the test substances. H9 cells are incubated in RPMI 1640 medium with 2% or 10% FCS as a HIV-1LAI supernatant infection at 37° C./5% CO2, (20 μl of substance dilution and 80 μl of cells/virus per well) in accordance with the pattern described above for 5 days. Subsequently, 10 μl of AlamarBlue (Invitrogen, Karlsruhe, Germany) are added to each well, and the MTPs are incubated at 37° C. for 3 hours before the fluorimetric evaluation takes place (544/590 nm). The resulting values are about 40 000 for the untreated uninfected cells and about 7000 for the untreated infected cells. In the low concentration range, the EC50 values of the test substances are determined as the concentration at which the fluorescence is 50% of the untreated uninfected cells (in each case subtracting the values of the untreated infected cells). In addition, in the high concentration range, the CC50 values of the test substances are determined as the concentration at which the fluorescence is 50% of the untreated uninfected cells (in each case subtracting the values of the untreated infected cells).

[1] = test system: HIV-1NL4-3 reporter virus, wild-type; assay: Light assay with wild-type HI reporter virus in MT4 7F2 cells; assay type: cell-based; details: Human immunodeficiency virus 1, 120 h, read-out: EC50 (nM) MT4 7F2 cells HIV-1NL4-M3 wt 2% FCS
Protocol: (§1) For the mixture for a 96-well MTP, 3 million MT4 7F2 cells are pelleted, suspended in 1 ml of RPMI 1640 medium without phenol red (Invitrogen, Karlsruhe, Germany)/10% FCS/10% AIM-V (Invitrogen, Karlsruhe, Germany) and incubated together with a suitable amount of the corresponding HIV-1NL4-3 reporter virus at 37° C. for 2 hours (pellet infection). Unadsorbed viruses are subsequently washed out with PBS, and the infected cells are pelleted again and suspended in 8 ml of RPMI 1640 medium without phenol red/2% or 10% FCS/10% AIM-V. 80 μl thereof are pipetted into each well of a white 96-well MTP with 20 μl of test substance in suitable dilution. To avoid edge effects, the wells on the edge of the MTP are not used for substance dilutions. The second vertical row of the MTP contains only infected cells (virus control) and the eleventh vertical row only uninfected cells (cell control), in each case in RPMI 1640 medium without phenol red/2% or 10% FCS/10% AIM-V. The other wells of the MTP contain the compounds of the invention in various concentrations starting from the third vertical row, from which the test substances are diluted in 3-fold steps up to the tenth vertical row 3^7-fold. The test substances are dissolved in DMSO, whereby the final DMSO concentration in the test mixture is 1%. The test mixtures are incubated at 37° C./5% CO2 for five days and, after the addition of 15 μl of Lu164 substrate (5 mg/ml coelenterazine dissolved in 30 μM glutathione/DMSO, 100 mM NaCl, 1M MES, 100 mM glutathione), evaluated by luminometry. The resulting values are in the region of 1 000 000 RLUs (relative light units) for the virus control and 300 to 400 RLUs for the cell control. The EC50 values of the test substances are determined as the concentration at which the virus replication measured in RLUs is 50% of the untreated infected cells.

[2] = test system: HIV-1NL4-3 reporter virus, reverse transcriptase mutations K103N-Y181C; assay: Light assay with inhibitor-resistant HI reporter virus in MT4 7F2 cells; assay type: cell-based; details: Human immunodeficiency virus 1, 120 h, read-out: EC50 (nM) MT4 7F2 cells HIV-1NL4-M3 K103N-Y181C 2% FCS
Protocol: as §1

reverse transcriptase = target: T1, reverse transcriptase (Human immunodeficiency virus type 1 group M subtype B, UniProt P04585); assay: Biochemical reverse transcriptase assay (Reverse Transcriptase Assay, colorimetric, Roche)
T1 construct: negative control (mixture without reverse transcriptase); purchased Roche Diagnostics GmbH, Mannheim, Germany
Protocol: The “Reverse Transcriptase Assay, colorimetric” (Roche Diagnostics GmbH, Mannheim, Germany) is used in accordance with the manufacturer's information. The test substances are dissolved in DMSO and are used in the test diluted in 5-fold steps (final DMSO concentration 1%). The resulting values of the photometric evaluation (405/492 nm) are less than 0.1 for the negative control (mixture without reverse transcriptase) and are in the region of 1.5 for the positive control (mixture without test substance). The IC50 values of the test substances are determined as the concentration of the test substance dilution at which the measured optical density is 50% of the positive control.

[3] = colorimetric RT assay, final DMSO 1%, read-out: IC50 (nM) RT assay

## N#Cc1cccc(-c2sc(C(=O)N3CNC(=O)C3)nc2-c2ccc(F)c(C#N)c2)c1 [Example 16, 5-{5-(3-Cyanophenyl)-2-[(4-oxoimidazolidin-1-yl)carbonyl]-1,3-thiazole-4-yl}-2-fluorobenzenecarbonitrile]
HIV-1LAI
  EC50: 2 nM
[1]
  EC50: 15 nM
[2]
  EC50: 123 nM

## O=C1CN(C(=O)c2nc(-c3ccc(F)c(Cl)c3)c(-c3cc(F)cc(Cl)c3)s2)CN1 [Example 1, 1-{[4-(3-Chloro-4-fluorophenyl)-5-(3-chloro-5-fluorophenyl)-1,3-thiazole-2-yl]carbonyl}imidazolidin-4-one]
Reverse transcriptase; [3]
  IC50: 61 nM
HIV-1LAI
  EC50: 14 nM
[1]
  EC50: 2 nM
[2]
  EC50: 55 nM

## N#Cc1cc(-c2sc(C(=O)N3CNC(=O)C3)nc2-c2cccc(Cl)c2)ccc1F [Example 5, 5-{4-(3-Chlorophenyl)-2-[(4-oxoimidazolidin-1-yl)carbonyl]-1,3-thiazole-5-yl}-2-fluorobenzenecarbonitrile]
HIV-1LAI
  EC50: 80 nM
[1]
  EC50: 38 nM
[2]
  EC50: 228 nM

## N#Cc1cc(F)cc(-c2sc(C(=O)N3CNC(=O)C3)nc2-c2ccc(F)c(Cl)c2)c1 [Example 11]
Reverse transcriptase
  IC50: 13 nM
HIV-1LAI
  EC50: 4 nM
[1]
  EC50: 5 nM
[2]
  EC50: 69 nM

## O=C1CN(C(=O)c2nc(-c3cccc(Cl)c3)c(-c3cccc(C(F)(F)F)c3)s2)CN1 [Example 8, 1-({4-(3-Chlorophenyl)-5-[3-(trifluoromethyl)phenyl]-1,3-thiazole-2-yl}carbonyl)imidazolidin-4-one]
[1]
  EC50: 46 nM
[2]
  EC50: 142 nM

## O=C1CN(C(=O)c2nc(-c3cc(F)cc(Cl)c3)c(-c3cccc(Cl)c3)s2)CN1 [Example 6, 1-{[4-(3-Chloro-5-fluorophenyl)-5-(3-chlorophenyl)-1,3-thiazole-2-yl]carbonyl}imidazolidin-4-one]
HIV-1LAI
  EC50: 95 nM
[1]
  EC50: 58 nM
[2]
  EC50: 282 nM

## N#Cc1cccc(-c2nc(C(=O)N3CNC(=O)C3)sc2-c2cccc(C#N)c2)c1 [Example 19, 3,3′-{2-[(4-Oxoimidazolidin-1-yl)carbonyl]-1,3-thiazole-4,5-diyl}benzenecarbonitrile]
HIV-1LAI
  EC50: 1 nM
[1]
  EC50: 2 nM
[2]
  EC50: 94 nM

## N#Cc1cc(F)cc(-c2nc(C(=O)N3CNC(=O)C3)sc2-c2cc(F)cc(Cl)c2)c1 [Example 12, 3-{5-(3-Chloro-5-fluorophenyl)-2-[(4-oxoimidazolidin-1-yl)carbonyl]-1,3-thiazole-4-yl}fluorobenzenecarbonitrile]
HIV-1LAI
  EC50: 80 nM
[1]
  EC50: 29 nM
[2]
  EC50: 119 nM

## N#Cc1cc(F)cc(-c2sc(C(=O)N3CNC(=O)C3)nc2-c2ccc(F)c(C#N)c2)c1 [Example 15, 5-{5-(3-Cyano-5-fluorophenyl)-2-[(4-oxoimidazolidin-1-yl)carbonyl]-1,3-thiazole-4-yl}-2-fluorobenzenecarbonitrile]
HIV-1LAI
  EC50: 2 nM
[1]
  EC50: 9 nM
[2]
  EC50: 87 nM

## N#Cc1cc(-c2nc(C(=O)N3CNC(=O)C3)sc2-c2cccc(Cl)c2)ccc1F [Example 14, 5-{5-(3-Chlorophenyl)-2-[(4-oxoimidazolidin-1-yl)carbonyl]-1,3-thiazole-4-yl}-2-fluorobenzenecarbonitrile]
HIV-1LAI
  EC50: 4 nM
[1]
  EC50: 1 nM
[2]
  EC50: 49 nM

## O=C1CN(C(=O)c2nc(-c3ccc(F)c(Cl)c3)c(-c3cccc(Cl)c3)s2)CN1 [Example 2, 1-{[4-(3-Chloro-4-fluorophenyl)-5-(3-chlorophenyl)-1,3-thiazole-2-yl]carbonyl}imidazolidin-4-one]
Reverse transcriptase; [3]
  IC50: 17 nM
HIV-1LAI
  EC50: 30 nM
[1]
  EC50: 4 nM
[2]
  EC50: 91 nM

## N#Cc1cc(-c2sc(C(=O)N3CNC(=O)C3)nc2-c2ccc(F)c(Cl)c2)ccc1F [Example 9, 5-{4-(3-Chloro-4-fluorophenyl)-2-[(4-oxoimidazolidin-1-yl)carbonyl]-1,3-thiazole-5-yl}-2-fluorobenzenecarbonitrile]
HIV-1LAI
  EC50: 40 nM
[1]
  EC50: 35 nM
[2]
  EC50: 118 nM

## N#Cc1cc(-c2nc(C(=O)N3CNC(=O)C3)sc2-c2cc(F)cc(Cl)c2)ccc1F [Example 13, 5-{5-(3-Chloro-5-fluorophenyl)-2-[(4-oxoimidazolidin-1-yl)carbonyl]-1,3-thiazole-4-yl}-2-fluorobenzenecarbonitrile]
HIV-1LAI
  EC50: 2 nM
[1]
  EC50: 0.6 nM
[2]
  EC50: 43 nM

## N#Cc1cccc(-c2nc(C(=O)N3CNC(=O)C3)sc2-c2cc(F)cc(Cl)c2)c1 [Example 18, 3-{5-(3-Chloro-5-fluorophenyl)-2-[(4-oxoimidazolidin-1-yl)carbonyl]-1,3-thiazole-4-yl}benzenecarbonitrile]
HIV-1LAI
  EC50: 1 nM
[1]
  EC50: 0.4 nM
[2]
  EC50: 38 nM

## N#Cc1cccc(-c2sc(C(=O)N3CNC(=O)C3)nc2-c2ccc(F)c(Cl)c2)c1 [Example 10]
HIV-1LAI
  EC50: 5 nM
[1]
  EC50: 4 nM
[2]
  EC50: 70 nM

## N#Cc1cccc(-c2sc(C(=O)N3CNC(=O)C3)nc2-c2cccc(Cl)c2)c1 [Example 7, 3-{4-(3-Chlorophenyl)-2-[(4-oxoimidazolidin-1-yl)carbonyl]-1,3-thiazole-5-yl}benzenecarbonitrile]
HIV-1LAI
  EC50: 20 nM
[1]
  EC50: 36 nM
[2]
  EC50: 303 nM

## N#Cc1cc(F)cc(-c2sc(C(=O)N3CNC(=O)C3)nc2-c2cccc(Cl)c2)c1 [Example 21, 3-{4-(3-Chlorophenyl)-2-[(4-oxoimidazolidin-1-yl)carbonyl]-1,3-thiazole-5-yl}-5-fluorobenzenecarbonitrile]
HIV-1LAI
  EC50: 2 nM
[1]
  EC50: 2 nM
[2]
  EC50: 79 nM

## O=C1CN(C(=O)c2nc(-c3cccc(Cl)c3)c(-c3ccc(F)c(Cl)c3)s2)CN1 [Example 4, 1-{[5-(3-Chloro-4-fluorophenyl)-4-(3-chlorophenyl)-1,3-thiazole-2-yl]carbonyl}imidazolidin-4-one]
HIV-1LAI
  EC50: 80 nM
[1]
  EC50: 10 nM
[2]
  EC50: 143 nM

## N#Cc1cccc(-c2nc(C(=O)N3CNC(=O)C3)sc2-c2cccc(Cl)c2)c1 [Example 17]
HIV-1LAI
  EC50: 2 nM
[1]
  EC50: 0.5 nM
[2]
  EC50: 64 nM
